Results from PubChem BioAssay (NCI).
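Cells were grown in 96-well plates and exposed to each compound for 48 hours at five concentrations; endpoints were interpolated linearly between bracketing concentrations, or set to the highest concentration if not reached. Abbreviation: GI50, concentration required for 50% inhibition of growth. Definition used: TGI = concentration required for complete inhibition of growth.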

How the values were obtained:
Assay in all cases: growth of human tumour cells (NCI), 48 h; in the data active means GI50 below about 0.43 µM; inactive means the rest
786-0 renal = test system: 786-0 renal
A498 renal = test system: A498 renal
A549 NSCLC = test system: A549 NSCLC
ACHN renal = test system: ACHN renal
BT-549 breast = test system: BT-549 breast
CAKI-1 renal = test system: CAKI-1 renal
CCRF-CEM leukemia = test system: CCRF-CEM leukemia
COLO 205 colon = test system: COLO 205 colon
DU-145 prostate = test system: DU-145 prostate
EKVX NSCLC = test system: EKVX NSCLC
HCC-2998 colon = test system: HCC-2998 colon
HCT-116 colon = test system: HCT-116 colon
HCT-15 colon = test system: HCT-15 colon
HL-60(TB) leukemia = test system: HL-60(TB) leukemia
HOP-62 NSCLC = test system: HOP-62 NSCLC
HOP-92 NSCLC = test system: HOP-92 NSCLC
HS 578T breast = test system: HS 578T breast
HT29 colon = test system: HT29 colon
IGROV1 ovarian = test system: IGROV1 ovarian
K-562 leukemia = test system: K-562 leukemia
KM12 colon = test system: KM12 colon
LOX IMVI melanoma = test system: LOX IMVI melanoma
M14 melanoma = test system: M14 melanoma
MALME-3M melanoma = test system: MALME-3M melanoma
MCF7 breast = test system: MCF7 breast
MDA-MB-231 breast = test system: MDA-MB-231 breast
MDA-MB-435 = test system: MDA-MB-435
MDA-MB-468 breast = test system: MDA-MB-468 breast
MOLT-4 leukemia = test system: MOLT-4 leukemia
NCI-H226 lung = test system: NCI-H226 lung
NCI-H23 lung = test system: NCI-H23 lung
NCI-H460 lung = test system: NCI-H460 lung
NCI-H522 lung = test system: NCI-H522 lung
OVCAR-3 ovarian = test system: OVCAR-3 ovarian
OVCAR-4 ovarian = test system: OVCAR-4 ovarian
OVCAR-5 ovarian = test system: OVCAR-5 ovarian
OVCAR-8 ovarian = test system: OVCAR-8 ovarian
PC-3 prostate = test system: PC-3 prostate
RPMI-8226 leukemia = test system: RPMI-8226 leukemia
RXF 393 renal = test system: RXF 393 renal
SF-268 CNS = test system: SF-268 CNS
SF-295 CNS = test system: SF-295 CNS
SF-539 CNS = test system: SF-539 CNS
SK-MEL-2 melanoma = test system: SK-MEL-2 melanoma
SK-MEL-28 melanoma = test system: SK-MEL-28 melanoma
SK-MEL-5 melanoma = test system: SK-MEL-5 melanoma
SK-OV-3 ovarian = test system: SK-OV-3 ovarian
SN12C renal = test system: SN12C renal
SNB-19 CNS = test system: SNB-19 CNS
SR leukemia = test system: SR leukemia
SW-620 colon = test system: SW-620 colon
T-47D breast = test system: T-47D breast
TK-10 renal = test system: TK-10 renal
U251 CNS = test system: U251 CNS
UACC-257 melanoma = test system: UACC-257 melanoma
UACC-62 melanoma = test system: UACC-62 melanoma
UO-31 renal = test system: UO-31 renal

O=C1CCC(N2C(=O)c3cccc(NCCOCCOCCOCCC(=O)NCCCC(=O)NC(c4ccc5c(c4)OCO5)c4cc(Cl)c5cccnc5c4O)c3C2=O)C(=O)C1 (centres undefined)
84.3 µM: TGI (OVCAR-4 ovarian)
52.3 µM: TGI (HOP-92 NSCLC)
90.8 µM: TGI (MALME-3M melanoma)
26.6 µM: TGI (SF-539 CNS)
43.8 µM: TGI (SK-MEL-5 melanoma)
23.1 µM: TGI (HL-60(TB) leukemia)
85.7 µM: TGI (UACC-257 melanoma)
75.1 µM: TGI (OVCAR-8 ovarian)
30.8 µM: TGI (HCC-2998 colon)
72.2 µM: TGI (NCI-H226 lung)
42.9 µM: TGI (NCI-H460 lung)
61 µM: TGI (SK-MEL-28 melanoma)
33.3 µM: TGI (RXF 393 renal)
42.3 µM: TGI (BT-549 breast)
22.2 µM: TGI (LOX IMVI melanoma)
34.6 µM: TGI (SK-MEL-2 melanoma)
22.7 µM: TGI (UACC-62 melanoma)
7.77 µM: TGI (MDA-MB-468 breast)
inactive: GI50 (786-0 renal) 29.6 µM | GI50 (A498 renal) > 99 µM | GI50 (A549 NSCLC) 41.5 µM | GI50 (ACHN renal) 52.5 µM | GI50 (BT-549 breast) 8.58 µM | GI50 (CAKI-1 renal) 28.3 µM | GI50 (CCRF-CEM leukemia) 3.34 µM | GI50 (COLO 205 colon) 5.04 µM | GI50 (DU-145 prostate) 37.5 µM | GI50 (EKVX NSCLC) 17.2 µM | GI50 (HCC-2998 colon) 6.03 µM | GI50 (HCT-116 colon) 22.2 µM | GI50 (HCT-15 colon) 37.4 µM | GI50 (HL-60(TB) leukemia) 2.41 µM | GI50 (HOP-62 NSCLC) 7.19 µM | GI50 (HOP-92 NSCLC) 4.29 µM | GI50 (HS 578T breast) 8.43 µM | GI50 (HT29 colon) 26.4 µM | GI50 (IGROV1 ovarian) 3.77 µM | GI50 (K-562 leukemia) 5.3 µM | GI50 (KM12 colon) 4.5 µM | GI50 (LOX IMVI melanoma) 4.29 µM | GI50 (M14 melanoma) 14 µM | GI50 (MALME-3M melanoma) 11.8 µM | GI50 (MCF7 breast) 3.69 µM | GI50 (MDA-MB-231 breast) 4.32 µM | GI50 (MDA-MB-435) 5.8 µM | GI50 (MDA-MB-468 breast) 2.56 µM | GI50 (MOLT-4 leukemia) 4.8 µM | GI50 (NCI-H226 lung) 14.5 µM | GI50 (NCI-H23 lung) 12.7 µM | GI50 (NCI-H460 lung) 4.81 µM | GI50 (NCI-H522 lung) 4.39 µM | GI50 (OVCAR-3 ovarian) 3.33 µM | GI50 (OVCAR-4 ovarian) 14.4 µM | GI50 (OVCAR-5 ovarian) 19.5 µM | GI50 (OVCAR-8 ovarian) 11.9 µM | GI50 (PC-3 prostate) 7.83 µM | GI50 (RPMI-8226 leukemia) 7.12 µM | GI50 (RXF 393 renal) 8.56 µM | GI50 (SF-268 CNS) 4.38 µM | GI50 (SF-295 CNS) 25.4 µM | GI50 (SF-539 CNS) 4.21 µM | GI50 (SK-MEL-2 melanoma) 4.89 µM | GI50 (SK-MEL-28 melanoma) 5.95 µM | GI50 (SK-MEL-5 melanoma) 14 µM | GI50 (SK-OV-3 ovarian) 14.6 µM | GI50 (SN12C renal) 5.42 µM | GI50 (SNB-19 CNS) 6.32 µM | GI50 (SR leukemia) 5.26 µM | GI50 (SW-620 colon) 12.6 µM | GI50 (T-47D breast) 5.06 µM | GI50 (TK-10 renal) 62.1 µM | GI50 (U251 CNS) 6.8 µM | GI50 (UACC-257 melanoma) 8.95 µM | GI50 (UACC-62 melanoma) 3.76 µM | GI50 (UO-31 renal) 33.6 µM
29.5 µM: TGI (MDA-MB-231 breast)
41.5 µM: TGI (NCI-H522 lung)
> 99 µM: TGI (786-0 renal) | TGI (A498 renal) | TGI (A549 NSCLC) | TGI (ACHN renal) | TGI (CAKI-1 renal) | TGI (CCRF-CEM leukemia) | TGI (COLO 205 colon) | TGI (DU-145 prostate) | TGI (EKVX NSCLC) | TGI (HCT-116 colon) | TGI (HCT-15 colon) | TGI (HOP-62 NSCLC) | TGI (HS 578T breast) | TGI (HT29 colon) | TGI (IGROV1 ovarian) | TGI (K-562 leukemia) | TGI (KM12 colon) | TGI (M14 melanoma) | TGI (MCF7 breast) | TGI (MDA-MB-435) | TGI (MOLT-4 leukemia) | TGI (NCI-H23 lung) | TGI (OVCAR-3 ovarian) | TGI (OVCAR-5 ovarian) | TGI (PC-3 prostate) | TGI (RPMI-8226 leukemia) | TGI (SF-268 CNS) | TGI (SF-295 CNS) | TGI (SK-OV-3 ovarian) | TGI (SN12C renal) | TGI (SNB-19 CNS) | TGI (SR leukemia) | TGI (SW-620 colon) | TGI (T-47D breast) | TGI (TK-10 renal) | TGI (U251 CNS) | TGI (UO-31 renal)
